# Assay results published in article PMC8981170 (RSC Advances, 2022).
# Where “and” joins values, the source holds several entries; their conditions need not be identical. Equal values may be shown once.
# Legend:
# [1] = target: T1, Sirt1 (Homo sapiens, UniProt Q96EB6); test: Enzyme-based Sirt1 inhibition assay at 10 μM; format: biochemical; settings: for % inhibition at 10 μM Sirt1: mean of three independent experiments; for inhibition at 10 µM: read-out: % inhibition at 10 μM Sirt1, 10 μM, mean of three independent experiments
# T1 sequence (Q96EB6 1-747): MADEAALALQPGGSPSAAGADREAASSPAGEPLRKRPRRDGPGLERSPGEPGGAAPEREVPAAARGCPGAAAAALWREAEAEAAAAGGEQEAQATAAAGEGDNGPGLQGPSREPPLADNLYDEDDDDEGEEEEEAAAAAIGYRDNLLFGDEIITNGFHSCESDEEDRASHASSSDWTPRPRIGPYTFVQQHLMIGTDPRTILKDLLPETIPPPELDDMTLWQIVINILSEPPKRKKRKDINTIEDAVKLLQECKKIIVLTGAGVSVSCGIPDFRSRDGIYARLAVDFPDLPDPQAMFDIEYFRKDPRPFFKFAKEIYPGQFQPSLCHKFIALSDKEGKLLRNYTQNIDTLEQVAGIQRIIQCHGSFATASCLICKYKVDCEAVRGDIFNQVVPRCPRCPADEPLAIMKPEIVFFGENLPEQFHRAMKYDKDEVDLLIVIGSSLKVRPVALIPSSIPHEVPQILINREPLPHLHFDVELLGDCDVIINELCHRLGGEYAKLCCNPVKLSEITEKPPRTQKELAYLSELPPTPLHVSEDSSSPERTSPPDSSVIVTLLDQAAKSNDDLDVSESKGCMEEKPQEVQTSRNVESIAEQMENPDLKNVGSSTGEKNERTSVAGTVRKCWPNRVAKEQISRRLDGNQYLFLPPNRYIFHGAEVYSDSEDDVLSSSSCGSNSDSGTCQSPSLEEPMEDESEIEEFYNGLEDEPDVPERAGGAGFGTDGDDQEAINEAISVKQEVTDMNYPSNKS
# [2] = target: T1, Sirt1; test: Cell-based Sirt1 inhibition in HepG2 cells; settings: HepG2, read-out: % Inhibition Sirt1, HepG2 cells, 10 μM, 6 h; n = 3
# [3] = system: Sirt2 + Sirt3; test: Cell-based Sirt2/Sirt3 joint inhibition in HepG2 cells; set-up: species or system human; settings: 10 μM, 6 h
# [4] = system: HepG2 cells; test: MTT cell viability assay, HepG2; format: cell-based, human; settings: 1-400 μM, 24 h
# [5] = system: MCF7 cells; test: MTT cell viability assay, MCF7; format: cell-based, human; settings: 1-400 μM, 24 h
# [6] = system: Ac-p53 in HepG2 cells; test: Western blotting for acetylated p53; format: cell-based, human; settings: 25 μM, 48 h, western blot
# [7] = target: T1, Sirt1; test: Concentration-dependent Sirt1 inhibition
# [8] = joint inhibition of Sirt2 and Sirt3, n = 3, 10 µM
SMILES,% inhibition at 10 μM Sirt1 [1],inhibition at 10 µM [1],inhibition at 10 µM [2],other results
COc1ccc(-c2nc3cc(C(=O)N[C@@H](C)C(=O)O)ccc3n2C2CCCCC2)cc1 [Compound 7a],88.03%,> 80%,< 1%,
COc1ccc(-c2nc3cc(C(=O)N[C@H](C(=O)O)C(C)C)ccc3n2C2CCCCC2)cc1 [Compound 7b],88.18%,> 80%,< 1%,
COc1ccc(-c2nc3cc(C(=O)N[C@@H](CC(C)C)C(=O)O)ccc3n2C2CCCCC2)cc1 [Compound 7c],86.34%,> 80%,3.24 ± 0.27%,"% Inhibition Sirt2 + Sirt3 ([3]; joint inhibition of Sirt2 and Sirt3, n = 3): 5.21 ± 0.78%"
COc1ccc(-c2nc3cc(C(=O)N[C@@H](Cc4c[nH]c5ccccc45)C(=O)O)ccc3n2C2CCCCC2)cc1 [Compound 7d],89.99%,> 80%,≥ 30%,"% Inhibition Sirt2 + Sirt3 [3, 8]: 19% and 20% and 19.89 ± 0.89%; Effect on HepG2 cell viability [4]: continuous decrease in cell viability with increasing inhibitor concentration; Effect on MCF7 cell viability [5]: continuous and comparatively higher decrease in cell viability with increasing inhibitor concentration; Ac-p53 levels in HepG2 cells [6]: increased the Ac-p53 levels in HepG2 cells comparable to the positive control; IC50 [7]: 770 ± 40 nM"
C[C@H](NC(=O)c1ccc2c(c1)nc(-c1ccc(F)cc1)n2C1CCCCC1)C(=O)O [Compound 7e],,< 30%,,
CC(C)[C@H](NC(=O)c1ccc2c(c1)nc(-c1ccc(F)cc1)n2C1CCCCC1)C(=O)O [Compound 7f],,< 30%,,
CC(C)C[C@H](NC(=O)c1ccc2c(c1)nc(-c1ccc(F)cc1)n2C1CCCCC1)C(=O)O [Compound 7g],,80.8%,< 1%,
O=C(N[C@@H](Cc1c[nH]c2ccccc12)C(=O)O)c1ccc2c(c1)nc(-c1ccc(F)cc1)n2C1CCCCC1 [Compound 7h],,86.8%,< 1%,
O=C(N[C@@H](Cc1c[nH]c2ccccc12)C(=O)O)c1ccc2c(c1)nc(-c1c(F)cccc1Cl)n2C1CCCCC1 [Compound 7l],,< 30%,,
COc1ccc(-c2n[nH]cc2C=C2SC(=S)N([C@@H](C)C(=O)O)C2=O)cc1 [Compound 13b],,< 30%,,
COc1ccc(-c2n[nH]cc2C=C2SC(=S)N([C@@H](Cc3ccccc3)C(=O)O)C2=O)cc1 [Compound 13c],,< 30%,,
COc1ccc(-c2n[nH]cc2C=C2SC(=S)N([C@@H](Cc3c[nH]c4ccccc34)C(=O)O)C2=O)cc1 [Compound 13d],90.64%,> 80%,≥ 30%,"% Inhibition Sirt2 + Sirt3 [3, 8]: 6% and 6.04 ± 0.91%; Effect on MCF7 cell viability [5]: no significant changes in cell viability; Ac-p53 levels in HepG2 cells [6]: no major change; IC50 [7]: 710 ± 30 nM"
C[C@@H](C(=O)O)N1C(=O)C(=Cc2c[nH]nc2-c2cc(F)cc(F)c2)SC1=S [Compound 13f],,< 30%,,
O=C(O)[C@H](Cc1ccccc1)N1C(=O)C(=Cc2c[nH]nc2-c2cc(F)cc(F)c2)SC1=S [Compound 13g],,< 30%,,
O=C(O)[C@H](Cc1c[nH]c2ccccc12)N1C(=O)C(=Cc2c[nH]nc2-c2cc(F)cc(F)c2)SC1=S [Compound 13h],89.15%,> 80%,≥ 30%,"% Inhibition Sirt2 + Sirt3 [3, 8]: 10% and 9.53 ± 0.65%; Effect on HepG2 cell viability [4]: very less decrease in cell viability; Effect on MCF7 cell viability [5]: no significant changes in cell viability; Ac-p53 levels in HepG2 cells [6]: no major change; IC50 [7]: 660 ± 20 nM"
C[C@@H](C(=O)O)N1C(=O)C(=Cc2c[nH]nc2-c2ccc([N+](=O)[O-])cc2)SC1=S [Compound 13j],,< 30%,,
O=C(O)[C@H](Cc1ccccc1)N1C(=O)C(=Cc2c[nH]nc2-c2ccc([N+](=O)[O-])cc2)SC1=S [Compound 13k],,< 30%,,
O=C(O)[C@H](Cc1c[nH]c2ccccc12)N1C(=O)C(=Cc2c[nH]nc2-c2ccc([N+](=O)[O-])cc2)SC1=S [Compound 13l],89.64%,> 80%,≥ 30%,"% Inhibition Sirt2 + Sirt3 [3, 8]: 9% and 9.47 ± 0.92%; Effect on HepG2 cell viability [4]: very less decrease in cell viability; Effect on MCF7 cell viability [5]: no significant changes in cell viability; Ac-p53 levels in HepG2 cells [6]: no major change; IC50 [7]: 730 ± 60 nM"
